Source: patent US20200024278A1, “COMPOSITION COMPRISING ANTIBIOTIC COMPOUND AND AN HETEROCYCLIC COMPOUND AND THEIR USE IN PREVENTING OR TREATING BACTERIAL INFECTIONS” (MUTABILIS, priority 2016, published 2020)

Columns and labels:
Experiment in all cases: MIC, broth microdilution (CLSI), substance alone or ATB combined with compound at 4 or 8 μg/mL
Format in all cases: cell-based, A. baumannii
ABA UFR160 = tested on: ABA UFR160
Outline: (§1)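 Growth inhibition endpoint, read visually after 16-20 h at 35° C in ambient air. Cation-adjusted Mueller-Hinton broth, inoculum 5·10^5 CFU/mL, CLSI M7-A7 protocol.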

ABA UFR155 = tested on: ABA UFR155
Outline: as §1

ABA UFR159 = tested on: ABA UFR159
Outline: as §1

ABA UFR154 = tested on: ABA UFR154
Outline: as §1

ABA UFR151 = tested on: ABA UFR151
Outline: as §1

ABA UFR158 = tested on: ABA UFR158
Outline: as §1

ABA 107292 = tested on: ABA 107292
Outline: as §1

ABA UFR156 = tested on: ABA UFR156
Outline: as §1

ABA UFR157 = tested on: ABA UFR157
Outline: as §1

ABA UFR152 = tested on: ABA UFR152
Outline: as §1

ABA UFR153 = tested on: ABA UFR153
Outline: as §1

[1] = Acinetobacter baumannii, antibiotic alone, read-out: MIC ATB alone

CO/N=C(\C(=O)N[C@@H]1C(=O)N2C(C(=O)[O-])=C(C[N+]3(C)CCCC3)CS[C@H]12)c1csc(N)n1 [FEP, Cefepime]
<0.25 µg/mL: MIC ATB combined with Example 6 @8 μg/ml (ABA UFR160; with Example 6 @8 μg/ml) | MIC ATB combined with Example 6 @8 μg/ml (ABA UFR151; with Example 6 @8 μg/ml) | MIC ATB combined with Example 6 @8 μg/ml (ABA UFR158; with Example 6 @8 μg/ml) | MIC ATB combined with Example 6 @8 μg/ml (ABA UFR157; with Example 6 @8 μg/ml)
8 µg/mL: MIC ATB combined with Example 3 @8 μg/ml (ABA 107292; with Example 3 @8 μg/ml) | MIC ATB combined with Example 12 @8 μg/ml (ABA 107292; with Example 12 @8 μg/ml) | MIC ATB combined with Example 3 @8 μg/ml (ABA UFR156; with Example 3 @8 μg/ml) | MIC ATB combined with Example 6 @8 μg/ml (ABA UFR156; with Example 6 @8 μg/ml) | MIC ATB combined with Example 10 @8 μg/ml (ABA UFR156; with Example 10 @8 μg/ml) | MIC ATB combined with Example 1 @8 μg/ml (ABA UFR157; with Example 1 @8 μg/ml) | MIC ATB combined with Example 9 @4 μg/ml (ABA UFR157; with Example 9 @4 μg/ml) | MIC ATB combined with Example 10 @8 μg/ml (ABA UFR157; with Example 10 @8 μg/ml) | MIC ATB combined with Example 11 @8 μg/ml (ABA UFR157; with Example 11 @8 μg/ml) | MIC ATB combined with Example 15 @4 μg/ml (ABA UFR157; with Example 15 @4 μg/ml) | MIC ATB combined with Example 3 @8 μg/ml (ABA UFR152; with Example 3 @8 μg/ml) | MIC ATB combined with Example 10 @8 μg/ml (ABA UFR152; with Example 10 @8 μg/ml) | MIC ATB combined with Example 12 @8 μg/ml (ABA UFR152; with Example 12 @8 μg/ml) | MIC ATB combined with Example 3 @8 μg/ml (ABA UFR153; with Example 3 @8 μg/ml) | MIC ATB combined with Example 10 @8 μg/ml (ABA UFR153; with Example 10 @8 μg/ml) | MIC ATB combined with Example 12 @8 μg/ml (ABA UFR153; with Example 12 @8 μg/ml)
0.5 µg/mL: MIC ATB combined with Example 10 @8 μg/ml (ABA UFR154; with Example 10 @8 μg/ml)
64 µg/mL: MIC ATB combined with Example 1 @8 μg/ml (ABA UFR155; with Example 1 @8 μg/ml) | MIC ATB combined with Example 10 @8 μg/ml (ABA UFR155; with Example 10 @8 μg/ml) | MIC ATB combined with Example 11 @8 μg/ml (ABA UFR155; with Example 11 @8 μg/ml) | MIC ATB combined with Example 12 @8 μg/ml (ABA UFR155; with Example 12 @8 μg/ml) | MIC (ABA 107292; [1]) | MIC ATB combined with Example 1 @8 μg/ml (ABA 107292; with Example 1 @8 μg/ml)
32 µg/mL: MIC ATB combined with Example 3 @8 μg/ml (ABA UFR155; with Example 3 @8 μg/ml) | MIC ATB combined with Example 9 @4 μg/ml (ABA UFR155; with Example 9 @4 μg/ml) | MIC ATB combined with Example 15 @4 μg/ml (ABA UFR155; with Example 15 @4 μg/ml) | MIC ATB combined with Example 11 @8 μg/ml (ABA 107292; with Example 11 @8 μg/ml) | MIC ATB combined with Example 15 @4 μg/ml (ABA 107292; with Example 15 @4 μg/ml) | MIC ATB combined with Example 1 @8 μg/ml (ABA UFR156; with Example 1 @8 μg/ml) | MIC ATB combined with Example 9 @4 μg/ml (ABA UFR156; with Example 9 @4 μg/ml) | MIC ATB combined with Example 11 @8 μg/ml (ABA UFR156; with Example 11 @8 μg/ml) | MIC ATB combined with Example 12 @8 μg/ml (ABA UFR156; with Example 12 @8 μg/ml) | MIC ATB combined with Example 15 @4 μg/ml (ABA UFR156; with Example 15 @4 μg/ml) | MIC (ABA UFR157; [1])
>128 µg/mL: MIC ATB combined with Example 1 @8 μg/ml (ABA UFR160; with Example 1 @8 μg/ml) | MIC ATB combined with Example 3 @8 μg/ml (ABA UFR160; with Example 3 @8 μg/ml) | MIC ATB combined with Example 9 @4 μg/ml (ABA UFR160; with Example 9 @4 μg/ml) | MIC ATB combined with Example 10 @8 μg/ml (ABA UFR160; with Example 10 @8 μg/ml) | MIC ATB combined with Example 11 @8 μg/ml (ABA UFR160; with Example 11 @8 μg/ml) | MIC ATB combined with Example 12 @8 μg/ml (ABA UFR160; with Example 12 @8 μg/ml) | MIC ATB combined with Example 15 @4 μg/ml (ABA UFR160; with Example 15 @4 μg/ml) | MIC ATB combined with Example 1 @8 μg/ml (ABA UFR159; with Example 1 @8 μg/ml) | MIC ATB combined with Example 3 @8 μg/ml (ABA UFR159; with Example 3 @8 μg/ml) | MIC ATB combined with Example 6 @8 μg/ml (ABA UFR159; with Example 6 @8 μg/ml) | MIC ATB combined with Example 9 @4 μg/ml (ABA UFR159; with Example 9 @4 μg/ml) | MIC ATB combined with Example 10 @8 μg/ml (ABA UFR159; with Example 10 @8 μg/ml) | MIC ATB combined with Example 11 @8 μg/ml (ABA UFR159; with Example 11 @8 μg/ml) | MIC ATB combined with Example 12 @8 μg/ml (ABA UFR159; with Example 12 @8 μg/ml) | MIC ATB combined with Example 15 @4 μg/ml (ABA UFR159; with Example 15 @4 μg/ml) | MIC ATB combined with Example 1 @8 μg/ml (ABA UFR158; with Example 1 @8 μg/ml) | MIC ATB combined with Example 3 @8 μg/ml (ABA UFR158; with Example 3 @8 μg/ml) | MIC ATB combined with Example 9 @4 μg/ml (ABA UFR158; with Example 9 @4 μg/ml) | MIC ATB combined with Example 10 @8 μg/ml (ABA UFR158; with Example 10 @8 μg/ml) | MIC ATB combined with Example 11 @8 μg/ml (ABA UFR158; with Example 11 @8 μg/ml) | MIC ATB combined with Example 12 @8 μg/ml (ABA UFR158; with Example 12 @8 μg/ml) | MIC ATB combined with Example 15 @4 μg/ml (ABA UFR158; with Example 15 @4 μg/ml)
16 µg/mL: MIC ATB combined with Example 6 @8 μg/ml (ABA UFR155; with Example 6 @8 μg/ml) | MIC ATB combined with Example 6 @8 μg/ml (ABA 107292; with Example 6 @8 μg/ml) | MIC ATB combined with Example 9 @4 μg/ml (ABA 107292; with Example 9 @4 μg/ml) | MIC ATB combined with Example 10 @8 μg/ml (ABA 107292; with Example 10 @8 μg/ml) | MIC (ABA UFR152; [1]) | MIC ATB combined with Example 1 @8 μg/ml (ABA UFR152; with Example 1 @8 μg/ml) | MIC ATB combined with Example 6 @8 μg/ml (ABA UFR152; with Example 6 @8 μg/ml) | MIC ATB combined with Example 9 @4 μg/ml (ABA UFR152; with Example 9 @4 μg/ml) | MIC ATB combined with Example 11 @8 μg/ml (ABA UFR152; with Example 11 @8 μg/ml) | MIC ATB combined with Example 15 @4 μg/ml (ABA UFR152; with Example 15 @4 μg/ml) | MIC ATB combined with Example 1 @8 μg/ml (ABA UFR153; with Example 1 @8 μg/ml) | MIC ATB combined with Example 9 @4 μg/ml (ABA UFR153; with Example 9 @4 μg/ml) | MIC ATB combined with Example 11 @8 μg/ml (ABA UFR153; with Example 11 @8 μg/ml) | MIC ATB combined with Example 15 @4 μg/ml (ABA UFR153; with Example 15 @4 μg/ml)
1 µg/mL: MIC ATB combined with Example 3 @8 μg/ml (ABA UFR154; with Example 3 @8 μg/ml) | MIC ATB combined with Example 6 @8 μg/ml (ABA UFR154; with Example 6 @8 μg/ml) | MIC ATB combined with Example 9 @4 μg/ml (ABA UFR154; with Example 9 @4 μg/ml) | MIC ATB combined with Example 11 @8 μg/ml (ABA UFR154; with Example 11 @8 μg/ml) | MIC ATB combined with Example 12 @8 μg/ml (ABA UFR154; with Example 12 @8 μg/ml) | MIC ATB combined with Example 3 @8 μg/ml (ABA UFR151; with Example 3 @8 μg/ml)
128 µg/mL: MIC (ABA UFR155; [1])
2 µg/mL: MIC (ABA UFR154; [1]) | MIC ATB combined with Example 1 @8 μg/ml (ABA UFR154; with Example 1 @8 μg/ml) | MIC ATB combined with Example 15 @4 μg/ml (ABA UFR154; with Example 15 @4 μg/ml) | MIC (ABA UFR151; [1]) | MIC ATB combined with Example 1 @8 μg/ml (ABA UFR151; with Example 1 @8 μg/ml) | MIC ATB combined with Example 9 @4 μg/ml (ABA UFR151; with Example 9 @4 μg/ml) | MIC ATB combined with Example 10 @8 μg/ml (ABA UFR151; with Example 10 @8 μg/ml) | MIC ATB combined with Example 11 @8 μg/ml (ABA UFR151; with Example 11 @8 μg/ml) | MIC ATB combined with Example 12 @8 μg/ml (ABA UFR151; with Example 12 @8 μg/ml) | MIC ATB combined with Example 15 @4 μg/ml (ABA UFR151; with Example 15 @4 μg/ml)
<=0.25 μg/mL: MIC ATB combined with Example 6 @8 μg/ml (ABA UFR153; with Example 6 @8 μg/ml)
4 µg/mL: MIC ATB combined with Example 3 @8 μg/ml (ABA UFR157; with Example 3 @8 μg/ml) | MIC ATB combined with Example 12 @8 μg/ml (ABA UFR157; with Example 12 @8 μg/ml)
> 128 µg/mL: MIC (ABA UFR160; [1]) | MIC (ABA UFR159; [1]) | MIC (ABA UFR158; [1]) | MIC (ABA UFR156; [1]) | MIC (ABA UFR153; [1])
